In patent US20250012799A1, “SARS-COV-2 POLYPEPTIDES AND USES THEREOF” (IAMA FRANCE, priority 2021, published 2025):
Like-named read-outs stand apart in the source and are kept apart here.

How the values were obtained:
[1] = system: NKp44L membrane expression on Calu-3 cells; format: cell-based, human; conditions: for Induction of NKp44L membrane expression: Calu-3, individual peptides/pools of sub-pools no 8.2 and no 8.3; for induction of the expression of NKp44L (in words): Calu-3 lung cell line
[2] = system: NKp44L membrane expression on A549: hu ACE-2 cells; format: cell-based, human; conditions: for induction of the expression of NKp44L (in words): A549: hu ACE-2 lung cell line; for Induction of NKp44L membrane expression: A549, individual peptides/pools of sub-pools no 8.2 and no 8.3

Substance	Induction of NKp44L membrane expression ([1]; Experiment no 1)	Induction of NKp44L membrane expression ([1]; Experiment no 2)	Induction of NKp44L membrane expression ([1]; Experiment no 3)	induction of the expression of NKp44L (in words) [1]	induction of the expression of NKp44L (in words) [2]	Induction of NKp44L membrane expression ([2]; Experiment no 1)	Induction of NKp44L membrane expression ([2]; Experiment no 2)	Induction of NKp44L membrane expression ([2]; Experiment no 3)
klianqfnsaigkiqdsl [Spi231]	2250	2406	2207	induce the expression of NKp44L	induce the expression of NKp44L	1308	1232	1199
yenqklianqfnsaigki [Spi230]	2213	2403	2173	induce the expression of NKp44L	induce the expression of NKp44L	1202	1198	1195
qmayrfngigvtqnvlye [Spi226]	103	112	119	–	–	53	59	71
nqfnsaigkiqdslssta [Spi232]	421	301	412	–	–	101	127	148
rfngigvtqnvlyengkl [Spi227]	2507	2726	2592	induce the expression of NKp44L	induce the expression of NKp44L	1402	1517	1538
qnvlyenqkliangfnsa [Spi229]	2103	1889	1875	induce the expression of NKp44L	induce the expression of NKp44L	1167	1021	993
igvtqnvlyenqklianq [Spi228]	91	103	117	–	–	75	82	89
